Laboratory results reported in patent publication US20220251084A1, “PROGRANULIN MODULATORS AND METHODS OF USING THE SAME” (ARKUDA THERAPEUTICS, priority 2019, published 2022).

system: progranulin (PGRN) secretion, BV-2 cells; assay: PGRN assay: progranulin induction cellular assay (ELISA of secreted mouse PGRN); assay type: cell-based; details: Mus musculus, BV-2, PGRN assay, Table C; secreted mouse PGRN in cell culture medium, ELISA
Summary of the method: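 Progranulin induction measured in BV-2 cells plated at about 80% confluence the day before, given 1 h to attach, then incubated 16 h. Secreted mouse PGRN quantified by ELISA.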

Row | Compound | EC50 [nM]
1 | O=C(NCC12CCN(CC1)CC2)N1CCc2ccccc2[C@@H]1c1ccc(F)cc1 [Compound 2178] | 590
2 | CN(CC1CCNCC1)C(=O)N1CCc2ccccc2[C@@H]1c1ccc(F)cc1 [Compound 2182, 1-(4-fluorophenyl)-N-methyl-N-(piperidin-4-ylmethyl)-3,4-dihydroisoquinoline-2(1H)-carboxamide] | > 10000
3 | CN(CC1CCNCC1)C(=O)N1CCc2ccccc2[C@H]1c1ccc(F)cc1 [Compound 2183, 1-(4-fluorophenyl)-N-methyl-N-(piperidin-4-ylmethyl)-3,4-dihydroisoquinoline-2(1H)-carboxamide] | 9600
4 | O=C(CCC1CCNCC1)N1CCc2ccccc2[C@@H]1c1ccc(F)cc1 [Compound 2184, (S)-1-(1-(4-fluorophenyl)-3,4-dihydroisoquinolin-2(1H)-yl)-3-(piperidin-4-yl)propan-1-one] | > 10000
5 | CN1CCN(C(=O)CC(=O)N2CCc3ccccc3[C@@H]2c2ccc(F)cc2)CC1 [Compound 2189, (S)-1-(1-(4-fluorophenyl)-3,4-dihydroisoquinolin-2(1H)-yl)-3-(4-methylpiperazin-1-yl) propane-1,3-dione] | 3320
6 | C#CCOc1ccc2c(c1)[C@H](c1ccc(F)cc1)N(C(=O)NCC13CCN(CC1)CC3)CC2 [Compound 2192, (S)-1-(4-fluorophenyl)-7-(prop-2-yn-1-yloxy)-N-(quinuclidin-4-ylmethyl)-3,4-dihydroisoquinoline-2(1H)-carboxamide] | > 10000
7 | C#CCOCCN1CCC(COC(=O)N2CCc3ccccc3[C@@H]2c2ccc(F)cc2)CC1 [Compound 2196, (1-(2-(prop-2-yn-1-yloxy)ethyl)piperidin-4-yl)methyl (S)-1-(4-fluorophenyl)-3,4-dihydroisoquinoline-2(1H)-carboxylate] | > 10000

Results, then the compound that gave them:

Row | EC50 [nM] | Compound
8 | 120 | O=C(O[C@@H]1CCNC1)N1CCc2ccccc2[C@@H]1c1ccc(F)cc1 [Compound 2179, (1S)—((R)-pyrrolidin-3-yl)-1-(4-fluorophenyl)-3,4-dihydroisoquinoline-2(1H)-carboxylate]
9 | 83 | O=C(O[C@H]1CCNC1)N1CCc2ccccc2[C@@H]1c1ccc(F)cc1 [Compound 2180, (1S)—((S)-pyrrolidin-3-yl)-1-(4-fluorophenyl)-3,4-dihydroisoquinoline-2(1H)-carboxylate]
10 | 400 | O=C(C[C@H]1CCCNC1)N1CCc2ccccc2[C@@H]1c1ccc(F)cc1 [Compound 2187]
11 | 3210 | O=C(C[C@@H]1CCCNC1)N1CCc2ccccc2[C@@H]1c1ccc(F)cc1 [Compound 2188]
12 | 2510 | O=C(NCC12CCN(CC1)C2)N1CCc2ccccc2[C@@H]1c1ccc(F)cc1 [Compound 2193, (S)—N-((1-azabicyclo[2.2.1]heptan-4-yl)methyl)-1-(4-fluorophenyl)-3,4-dihydroisoquinoline-2(1H)-carboxamide]
13 | 3200 | C#CCN1CCC(COC(=O)N2CCc3ccccc3[C@@H]2c2ccc(F)cc2)CC1 [Compound 2194, (1-(prop-2-yn-1-yl)piperidin-4-yl)methyl (S)-1-(4-fluorophenyl)-3,4-dihydroisoquinoline-2(1H)-carboxylate]
14 | 1700 | C#CCN1CCC(OC(=O)N2CCc3ccccc3[C@@H]2c2ccc(F)cc2)CC1 [Compound 2195, 1-(prop-2-yn-1-yl)piperidin-4-yl (S)-1-(4-fluorophenyl)-3,4-dihydroisoquinoline-2(1H)-carboxylate]
15 | 1060 | C#CCOCCN1CCC(OC(=O)N2CCc3ccccc3[C@@H]2c2ccc(F)cc2)CC1 [Compound 2197, 1-(2-(prop-2-yn-1-yloxy)ethyl)piperidin-4-yl (S)-1-(4-fluorophenyl)-3,4-dihydroisoquinoline-2(1H)-carboxylate]

same assay, conditions: PGRN assay, Table C; secreted mouse PGRN in cell culture medium, ELISA

Row | EC50 [nM] | Compound
16 | 290 | O=C(OC1CCNCC1)N1CCc2ccccc2[C@@H]1c1ccc(F)cc1 [Compound 2176]
17 | > 3160 | O=C(OC1CNC1)N1CCc2ccccc2[C@@H]1c1ccc(F)cc1 [Compound 2177]
